Experimental data from patent US8106055B2, “Substituted amide compounds” (Gruenenthal GmbH, priority 2007, dated 2012).

Experiments:
[1] = target: T1, bradykinin 1 receptor (B1R) of the rat (Rattus norvegicus, UniProt P97583); assay: Functional investigation on the rat bradykinin 1 receptor (B1R), Ca2+ FLIPR assay in CHO K1 rB1R cells; format: cell-based; details: B1R antagonism rat; test substance 10 μM; Ca2+ FLIPR, CHO K1 rB1R cells
T1 construct: expressed in transfected cells; host or cells: CHO K1 cells
T1 sequence (P97583 1-337): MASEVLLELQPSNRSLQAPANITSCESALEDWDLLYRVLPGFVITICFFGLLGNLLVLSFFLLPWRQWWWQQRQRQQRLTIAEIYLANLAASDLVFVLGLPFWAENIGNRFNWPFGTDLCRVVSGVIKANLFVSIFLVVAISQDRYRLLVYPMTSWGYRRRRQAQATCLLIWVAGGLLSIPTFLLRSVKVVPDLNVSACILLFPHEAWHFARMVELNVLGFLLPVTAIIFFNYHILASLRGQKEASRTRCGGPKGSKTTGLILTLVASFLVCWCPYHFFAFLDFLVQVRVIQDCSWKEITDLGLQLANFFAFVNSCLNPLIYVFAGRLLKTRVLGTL
Procedure, shortened: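 Peak Ca2+-dependent fluorescence in B1R-transfected CHO K1 cells measures antagonism of an EC80 agonist challenge given 10-20 min after compound. Agonist is Lys-Des-Arg9-bradykinin for human, Des-Arg9-bradykinin for rat receptor.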

[2] = target: T2, human μ opiate receptor (Homo sapiens, UniProt P35372); assay: Affinity for the human μ opiate receptor ([3H]-naloxone displacement, CHO-K1 receptor membrane preparation, SPA); format: binding; details: test concentration of 1 μM
T2 construct: purchased PerkinElmer Life Sciences, Zaventem, Belgium RB-HOM; host or cells: CHO-K1 cells (membrane preparation)
Procedure, shortened: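 At 1 μmol/l, compounds were scored for % displacement of 1 nmol/l [3H]-naloxone from CHO-K1-expressed human μ opiate receptor in a homogeneous SPA format (90 min, room temperature).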

T2 sequence (P35372 whole entry): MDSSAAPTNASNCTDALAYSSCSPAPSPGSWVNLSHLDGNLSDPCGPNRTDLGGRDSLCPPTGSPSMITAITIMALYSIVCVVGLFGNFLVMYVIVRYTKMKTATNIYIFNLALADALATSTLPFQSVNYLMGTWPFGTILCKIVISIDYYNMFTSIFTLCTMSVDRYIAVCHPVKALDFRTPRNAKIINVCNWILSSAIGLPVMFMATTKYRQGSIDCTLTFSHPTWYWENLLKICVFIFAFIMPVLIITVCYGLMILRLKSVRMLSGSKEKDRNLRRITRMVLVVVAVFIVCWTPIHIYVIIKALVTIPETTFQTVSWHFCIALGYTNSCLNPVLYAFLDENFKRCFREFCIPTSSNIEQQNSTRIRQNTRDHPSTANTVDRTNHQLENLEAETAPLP

SMILES | B1R Ant. r [10 μM] % Inhibition [1] [%] | μ (binding on the μ opioid receptor, % inhibition) [2] [%]
CN(C)C(c1ccc(F)cc1)C1CCC(NC(=O)COC2CCN(S(=O)(=O)c3ccccc3)CC2)CC1 (stereo not shown) [Example 408] | 1 | 48
COc1ccc(S(=O)(=O)N2CCCC2COCC(=O)NCCC2CCC(C(c3ccc(F)cc3)N(C)C)CC2)cc1 (stereo not shown) [Example 409] | 48 | 54
CN(C)C(c1ccc(Cl)cc1)C1CCC(CCNC(=O)COC2CCCCC2N(C)S(=O)(=O)c2ccc(Cl)c(Cl)c2)CC1 (stereo not shown) [Example 410] | 6 | 50
CN(C)C(c1ccc(Cl)cc1)C1CCC(CNC(=O)COCCN(C)S(=O)(=O)c2ccc(OC(F)(F)F)cc2)CC1 (stereo not shown) [Example 411] | 3 | 60
COc1cc(C)c(S(=O)(=O)N2CCC(OCC(=O)NCCC3CCC(C(c4ccc(Cl)cc4)N(C)C)CC3)C2)c(C)c1C (stereo not shown) [Example 412] | −5 | 50
CCN(CCOCC(=O)NCCC1CCC(C(c2ccc(F)cc2)N(C)C)CC1)S(=O)(=O)c1c(C)cc(OC)c(C)c1C (stereo not shown) [Example 413] | 83 | 55
COc1cc(C)c(S(=O)(=O)N(CCOCC(=O)NCC2CCC(C(c3cccc(F)c3)N(C)C)CC2)Cc2ccccc2)c(C)c1C (stereo not shown) [Example 414] | 10 | 64
CN(C)C(CCc1ccccc1)C1CCC(CNC(=O)COCC2CCCN2S(=O)(=O)c2ccc(Cl)c(Cl)c2)CC1 (stereo not shown) [Example 415] | 39 | 55
Cc1cc(C)c(S(=O)(=O)N(C)CCOCC(=O)NCCC2CCC(C(c3ccc(Cl)cc3)N(C)C)CC2)c(C)c1 (stereo not shown) [Example 416] | 30 | 53
COc1cc(C)c(S(=O)(=O)N2CCCC(OCC(=O)NCC3CCC(C(c4ccc(F)cc4)N(C)C)CC3)C2)c(C)c1C (stereo not shown) [Example 418] | 6 | 51
COc1cc(C)c(S(=O)(=O)N(CCOCC(=O)NC2CCC(C(c3cccc(F)c3)N(C)C)CC2)Cc2ccccc2)c(C)c1C (stereo not shown) [Example 419] | 34 | 53
COc1cc(C)c(S(=O)(=O)N(C)CCOCC(=O)NC2CCC(C(c3ccc(F)cc3)N(C)C)CC2)c(C)c1 (stereo not shown) [Example 422] | 104 | 43
CN(C)C(c1ccc(F)cc1)C1CCC(NC(=O)COC2CCCN(S(=O)(=O)c3ccccc3)C2)CC1 (stereo not shown) [Example 423] | −20 | 47
CN(C)C(c1ccc(F)cc1)C1CCC(CNC(=O)COCC2CCCN(S(=O)(=O)c3ccccc3)C2)CC1 (stereo not shown) [Example 424] | 20 | 39
CN(C)C(c1ccc(Cl)cc1)C1CCC(CCNC(=O)COCC2CCCN(S(=O)(=O)c3ccccc3)C2)CC1 (stereo not shown) [Example 425] | 30 | 48
CN(C)C(c1ccc(Cl)cc1)C1CCC(CCNC(=O)COCCN(Cc2ccccc2)S(=O)(=O)c2ccccc2)CC1 (stereo not shown) [Example 426] | 9 | 48
COc1cc(C)c(S(=O)(=O)N2CCC(OCC(=O)NCC3CCC(C(c4ccc(F)cc4)N(C)C)CC3)C2)c(C)c1C (stereo not shown) [Example 427] | 8 | 50
COc1cc(C)c(S(=O)(=O)N2CCC(OCC(=O)NCC3CCC(C(c4ccc(Cl)cc4)N(C)C)CC3)C2)c(C)c1C (stereo not shown) [Example 428] | 8 | 49
COc1cc(C)c(S(=O)(=O)N2CCN(CCOCC(=O)NCC3CCC(C(c4ccc(Cl)cc4)N(C)C)CC3)CC2)c(C)c1C (stereo not shown) [Example 429] | 13 | 54

SMILES | B1R Ant. r [10 μM] % Inhibition [1] [%] | μ (binding on the μ opioid receptor, % inhibition) [2] [%]
COc1ccc(S(=O)(=O)N2CCC(OCC(=O)NCCC3CCC(C(c4ccc(F)cc4)N(C)C)CC3)C2)cc1OC (stereo not shown) [Example 430] | 21 | 56
CN(C)C(c1ccc(Cl)cc1)C1CCC(CCNC(=O)COC2CCN(S(=O)(=O)c3cccc(C(F)(F)F)c3)C2)CC1 (stereo not shown) [Example 431] | 34 | 45
Cc1cc(C)c(S(=O)(=O)N2CCC(OCC(=O)NCC3CCC(C(c4ccc(F)cc4)N(C)C)CC3)C2)c(C)c1 (stereo not shown) [Example 432] | 45 | 56
CN(C)C(c1ccc(F)cc1)C1CCC(CNC(=O)COCCN2CCN(S(=O)(=O)c3ccccc3)CC2)CC1 (stereo not shown) [Example 433] | −12 | 46
CCN(CCOCC(=O)NCCC1CCC(C(c2ccc(Cl)cc2)N(C)C)CC1)S(=O)(=O)c1c(C)cc(OC)c(C)c1C (stereo not shown) [Example 434] | 58 | 46
COc1cc(C)c(S(=O)(=O)N2CCCC(OCC(=O)NC3CCC(C(c4ccc(F)cc4)N(C)C)CC3)C2)c(C)c1C (stereo not shown) [Example 435] | 14 | 48
COc1cc(C)c(S(=O)(=O)N(CCOCC(=O)NCCC2CCC(C(c3cccc(F)c3)N(C)C)CC2)Cc2ccccc2)c(C)c1C (stereo not shown) [Example 436] | 10 | 57
CN(C)C(c1ccc(F)cc1)C1CCC(NC(=O)COCCN(C)S(=O)(=O)c2cccc(C(F)(F)F)c2)CC1 (stereo not shown) [Example 438] | −10 | 51
CN(C)C(c1ccc(F)cc1)C1CCC(CNC(=O)COCCN(C)S(=O)(=O)c2ccc(OC(F)(F)F)cc2)CC1 (stereo not shown) [Example 439] | 16 | 50
CN(C)C(c1ccc(Cl)cc1)C1CCC(CCNC(=O)COC2CCN(S(=O)(=O)c3ccc(F)cc3)C2)CC1 (stereo not shown) [Example 440] | 31 | 47
COc1cc(C)c(S(=O)(=O)N2CCC(OCC(=O)NC3CCC(C(c4ccc(F)cc4)N(C)C)CC3)C2)c(C)c1 (stereo not shown) [Example 441] | 84 | 49
CN(C)C(c1ccc(Cl)cc1)C1CCC(CCNC(=O)COCCN(C)S(=O)(=O)c2c(Cl)cc(Cl)cc2Cl)CC1 (stereo not shown) [Example 442] | 11 | 54
CN(C)C(c1ccc(Cl)cc1)C1CCC(CCNC(=O)COC2CCN(S(=O)(=O)c3ccccc3)CC2)CC1 (stereo not shown) [Example 443] | −1 | 45
CN(C)C(c1cccc(F)c1)C1CCC(CCNC(=O)COC2CCN(S(=O)(=O)c3ccccc3)CC2)CC1 (stereo not shown) [Example 444] | −5 | 56
CN(C)C(CCc1ccccc1)C1CCC(CNC(=O)COCCN(C)S(=O)(=O)c2ccc(Cl)cc2)CC1 (stereo not shown) [Example 445] | 46 | 44
CN(C)C(c1ccc(F)cc1)C1CCC(CCNC(=O)COCCN(C)S(=O)(=O)c2ccc(OC(F)(F)F)cc2)CC1 (stereo not shown) [Example 446] | 33 | 51
Cc1ccc(S(=O)(=O)N2CCC(OCC(=O)NCC3CCC(C(c4ccc(F)cc4)N(C)C)CC3)C2)cc1 (stereo not shown) [Example 447] | 3 | 44
Cc1ccc(S(=O)(=O)N(C)CCOCC(=O)NC2CCC(C(c3ccc(F)cc3)N(C)C)CC2)cc1 (stereo not shown) [Example 448] | 12 | 41
COc1cc(C)c(S(=O)(=O)N2CCCC(OCC(=O)NCC3CCC(C(c4ccc(Cl)cc4)N(C)C)CC3)C2)c(C)c1C (stereo not shown) [Example 449] | −7 | 46
